In brackets after ≈: the same amount, converted by molar mass. Several values for one entry are separate records, joined by “and”; a condition that tells them apart may be missing. Equal entries are not always repeated.
What was measured:
[1] = system: HCT-VP human colon tumor cell line; assay: in vitro cytotoxicity assay, HCT/VP (etoposide resistant); format: cell-based; settings: 50% inhibition of cell growth; etoposide values (in parentheses) from the same run
Protocol: (§1) The test data involves a cytotoxicity assay versus various murine and human tumors, and in vivo evaluation against P-388 leukemia and B16 melanoma in mice.
(§2) The in vitro cytotoxicity assay involved growing various mammalian tumor cells, including human tumor cells, on microtitre plates employing established tissue culture methods. The concentration of each compound required to inhibit cell growth by 50% (IC50) was then determined by a four-fold serial dilution technique. The validity of the method has been supported by a report published in the "Proceedings of the American Association for Cancer Research", Vol. 25, 328, p. 1891 (1984). Tumor cells of the following types were employed for each compound tested: B16-F10 murine melanoma; Moser human colon; M109 murine lung; and three human colon tumor cell lines namely HCT-116, HCT-VM, and HCT-VP, the latter two being resistant to teniposide (VM) and etoposide (VP). A wide range of IC50 values was observed, and quantitative comparisons amongst test compounds or against the etoposide control values were not possible.

[2] = system: B16 melanoma; assay: B16 melanoma, in vivo antitumor activity; set-up: species or system BDF1 female mice; settings: for % T/C: B16 melanoma s.c.
[3] = system: Moser human colon; assay: in vitro cytotoxicity assay, Moser; format: cell-based; settings: 50% inhibition of cell growth; etoposide values (in parentheses) from the same run
Protocol: as §1, §2

[4] = system: HCT-116 human colon tumor cell line; assay: in vitro cytotoxicity assay, HCT-116; format: cell-based; settings: 50% inhibition of cell growth; etoposide values (in parentheses) from the same run
Protocol: as §1, §2

[5] = system: B16-F10 murine melanoma; assay: in vitro cytotoxicity assay, B16-F10; format: cell-based; settings: 50% inhibition of cell growth, etoposide values (in parentheses) from the same run
Protocol: as §1, §2

[6] = system: variety of cancers including small cell lung cancer, non-lymphocytic leukemia, and nonseminomatous testicular cancer; settings: AMA Drug Evaluations, 5th Edition, 1983; cited from earlier work
[7] = system: P-388 murine leukemia; assay: P-388 murine leukemia, in vivo antitumor activity; set-up: species or system CDF1 female mice; Average Weight Change: unit: g; settings: for Average Weight Change / Maximum Effect % T/C: P-388, i.p.; for effectiveness relative to etoposide (% T/C): P-388, days 5 and 8 protocol
Protocol: The test protocol involved CDF1 female mice implanted intraperitoneally with a tumor inoculum of 10^6 ascites cells of P-388 murine leukemia and treated with various doses of a test compound, or with etoposide. The compounds were administered by intraperitoneal injection on various schedules. Groups of four mice were used for each dosage schedule and amount. A group of ten saline treated control mice was included in each series of experiments, and etoposide treated groups of six were included as a positive control. Thirty one, 47, and 49 day protocols were employed with the mean survival time in days being determined for each group of mice and the number of survivors at the end of the period being noted. The mice were weighed before treatment and again on day 5 or day 6. Mice weighing 20 grams each were employed and a loss in weight of up to approximately 2 grams was not considered excessive. The results are arranged in Table II and were determined in terms of % T/C which is the ratio of the mean survival time of the treated group to the mean survival time of the saline treated control group times 100. The saline treated control animals usually died within nine days. The "maximum effect" in the table is expressed as % T/C and the dose giving that effect is reported. Two different dosage regimens were employed. In one, the first dose of test drug was given on Day 1, the day of tumor inoculation, and second was given on Day 5. In the other, the first dose of test drug was given on Day 5 and a second dose on Day 8. According to the latter protocol, the etoposide control % T/C values are lower than according to the former protocol indicating a more stringent test regimen.

[8] = system: HCT-VM human colon tumor cell line; assay: in vitro cytotoxicity assay, HCT/VM (teniposide resistant); format: cell-based; settings: 50% inhibition of cell growth; etoposide values (in parentheses) from the same run
Protocol: as §1, §2

[9] = system: M109 murine lung; assay: in vitro cytotoxicity assay, M109; format: cell-based; settings: 50% inhibition of cell growth; etoposide values (in parentheses) from the same run
Protocol: as §1, §2

[10] = 40 mg/kg, treatment days 1 and 5
[11] = 60 mg/kg, treatment days 1 and 5
[12] = 60 mg/kg, treatment days 5 and 8
[13] = 120 mg/kg, treatment days 1 and 5
[14] = 160 mg/kg, treatment days 5 and 8
[15] = 200 mg/kg, treatment days 5 and 8

Row | Molecule | IC50 HCT/VP [1] | IC50 Moser [3] | IC50 HCT-116 [4] | IC50 B16-F10 [5] | activity in the treatment of cancers [6] | IC50 HCT/VM [8] | Average Weight Change [7, 13] | Maximum Effect % T/C [7, 13] [% T/C] | IC50 M109 [9] | effectiveness relative to etoposide (% T/C) [7] | further results
1 | COc1cc([C@@H]2c3cc4c(cc3[C@@H](O[C@@H]3O[C@@H]5CO[C@@H](C)O[C@H]5[C@H](O)[C@H]3O)[C@H]3COC(=O)[C@H]23)OCO4)cc(OC)c1O [Etoposide, reference compound] | 30 mg/L and 41 mg/L | 38 mg/L and 39 mg/L | 2.1 mg/L and 2.7 mg/L | 1.9 mg/L (≈ 3.23 µM) | active | 6.1 mg/L and 3.1 mg/L | – | – | – | – | % T/C ([2]; i.p., 100 mg/kg): > 177; IC50 B16-F10 ([5]; listed as etoposide): 9 to 12 mg/L; Average Weight Change [7, 10]: -1.9; Maximum Effect % T/C [7, 10]: > 450 % T/C; Average Weight Change [7, 11]: -0.4; Maximum Effect % T/C [7, 11]: > 573 % T/C; Average Weight Change [7, 12]: +2.1; Maximum Effect % T/C [7, 12]: 280 % T/C
2 | CCP1(CC)(CC)Oc2cc([C@@H]3c4cc5c(cc4[C@@H](O[C@@H]4O[C@@H]6CO[C@@H](C)O[C@H]6[C@H](O)[C@H]4O)[C@H]4COC(=O)[C@H]34)OCO5)cc(OC)c2O1 [Example 1, ETOPOSIDE-3',4'-DIOXATRIETHYLPHOSPHORANE] | 108 mg/L and 89 mg/L | 64 mg/L and 85 mg/L | 47 mg/L and 46 mg/L | – | – | 56 mg/L and 45 mg/L | -0.7 | > 544 | – | – | activity against B16 melanoma (prolongation of survival) ([2]; B16 melanoma implanted subcutaneously, i.p. dosage): active; % T/C ([2]; i.p. dosage, 40 mg/kg): 145%
3 | COc1cc([C@@H]2c3cc4c(cc3[C@@H](O[C@@H]3O[C@@H]5CO[C@@H](C)O[C@H]5[C@H](O)[C@H]3O)[C@H]3COC(=O)[C@H]23)OCO4)cc2c1OP(C)(CO)(CO)O2 [Example 2] | 74 mg/L and 80 mg/L | 74 mg/L and 70 mg/L | 9.8 mg/L and 10.6 mg/L | 21 mg/L and 30 mg/L | – | – | – | – | 76 mg/L and 71 mg/L | Greater effectiveness | Average Weight Change [7, 14]: +2.6; Maximum Effect % T/C [7, 14]: 305 % T/C
4 | COc1cc([C@@H]2c3cc4c(cc3[C@@H](O[C@@H]3O[C@@H]5CO[C@@H](C)O[C@H]5[C@H](O)[C@H]3O)[C@H]3COC(=O)[C@H]23)OCO4)cc2c1OP(CCC#N)(CCC#N)(CCC#N)O2 [Example 3, Etoposide-3',4'-Dioxa-Tris-(2-Cyanoethyl)Phosphorane] | 64 mg/L and 99 mg/L | 105 mg/L and 79 mg/L | 15.6 mg/L and 14.3 mg/L | 20 mg/L and 22 mg/L | – | 35 mg/L and 56 mg/L | – | – | 54 mg/L and 56 mg/L | Greater effectiveness | Average Weight Change [7, 15]: +3.2; Maximum Effect % T/C [7, 15]: 285 % T/C
5 | COc1cc([C@@H]2c3cc4c(cc3[C@@H](O[C@@H]3O[C@@H]5CO[C@@H](c6cccs6)O[C@H]5[C@H](O)[C@H]3O)[C@H]3COC(=O)[C@H]23)OCO4)cc(OC)c1O [Teniposide] | – | – | – | – | active | – | – | – | – | – | –
6 | Etoposide-Bis-(2-Chloroethyl)Phosphate, Mixture of 3' and 4'Regioisomers [Example 4] | 203 mg/L and 168 mg/L | 84 mg/L | – | 13.1 mg/L and 20.7 mg/L | – | 63 mg/L and 82 mg/L | +0.2 | 150 | > 125 mg/L and 97 mg/L | – | –
